From publication PMC6089342 (ACS chemical biology, 2017)

Experiments:
YFP-PARP14 MD2 = biological target: T1, YFP-PARP14 MD2 (Homo sapiens, UniProt Q460N5); assay: Laser micro-irradiation assay, recruitment of YFP-PARP14 MD2 to DNA damage sites; format: cell-based; conditions: U-2 OS cells
T1 sequence (Q460N5 1003-1190 limits assumed): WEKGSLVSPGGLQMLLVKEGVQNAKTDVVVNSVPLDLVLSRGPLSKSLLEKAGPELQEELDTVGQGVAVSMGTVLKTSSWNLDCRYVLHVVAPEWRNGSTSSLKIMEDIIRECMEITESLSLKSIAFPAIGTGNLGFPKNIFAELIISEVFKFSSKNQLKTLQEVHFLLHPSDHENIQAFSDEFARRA

PARP14 MD2 = biological target: T2, PARP14 MD2 (Homo sapiens, UniProt Q460N5); assay: Isothermal titration calorimetry; format: binding; conditions: negative control, Figure 1D
T2 sequence (Q460N5 994-1191): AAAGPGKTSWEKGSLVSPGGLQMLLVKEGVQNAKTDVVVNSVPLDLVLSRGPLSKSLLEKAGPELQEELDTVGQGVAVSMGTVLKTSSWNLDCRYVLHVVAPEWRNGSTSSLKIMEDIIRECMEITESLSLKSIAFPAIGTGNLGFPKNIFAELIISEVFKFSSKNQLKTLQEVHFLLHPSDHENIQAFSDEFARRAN

CC(=O)Nc1ccncc1-c1cccc2c1[nH]c1ccccc12 [MnK2-68]
PARP14 MD2 recruitment to laser-induced DNA damage sites (YFP-PARP14 MD2; negative control, concentration not given): did not interfere with PARP14 MD2 recruitment | binding to PARP14 MD2 (PARP14 MD2): did not bind

O=C(c1cc(Cc2n[nH]c(=O)c3ccccc23)ccc1F)N1CCN(C(=O)C2CC2)CC1 [Olaparib, reference compound]
PARP14 MD2 recruitment to laser-induced DNA damage sites (YFP-PARP14 MD2; 10 µM, pre-treated 1 hour): recruitment of the macrodomain could not be detected
